Structures can show the parent of a compound that is named as a salt.

Experimental findings from US20050137806A1 (priority 2003, published 2005) are described below.

This experiment relates to a cell line. The class given is cell-based. The conditions noted are these: for mitotic index as a function of drug concentration (dose response path): FIG. 2A, drugs in aqueous DMSO, multiple concentrations, fraction of cells in mitosis. Here is the method: As shown, four different drugs were tested against a cell line at multiple concentrations. Taxol, one of the drugs, was tested twice. For each drug at each concentration various images were taken to extract various cellular features by image analysis. In some cases, basic extracted features are analyzed using appropriate classification algorithm to provide higher-level biological classifications such as mitotic state. In FIG. 2A, the feature is “mitotic index” (a numerical classification of the cells an image on basis of the fraction of them in mitosis) shown as the dependent variable with respect to concentration in a two-dimensional plot.
All drugs were provided in an aqueous solution of dimethyl sulfoxide (DMSO). As a negative control, the cells were exposed to aqueous DMSO without any drug present. Normally, an aqueous DMSO solution is used as the solvent for delivering drugs to samples. The feature values extracted for cells exposed to the DMSO control are shown as signatures 207.
Another approach replaces the concentration variable (generally a level of stimulus variable) with another variable that can depict a trajectory but is relatively independent of potency. In other words, the chosen feature space is independent (or largely independent) of dose (concentration). […] This new variable is a measure of the number of cells that survived the treatment. Because the variable changes only when the drug begins taking effect (regardless of absolute concentration), it effectively puts all curves on the same potency scale. Using this plot, one can more rigorously classify Taxol and Cytochalasin A as having the same mechanism of action (based on mitotic index as the dependent variable).

With `CC(=O)O[C@H]1C(=O)[C@@]2(C)[C@H]([C@H](OC(=O)c3ccccc3)[C@]3(O)C[C@H](OC(=O)[C@H](O)[C@@H](NC(=O)c4ccccc4)c4ccccc4)C(C)=C1C3(C)C)[C@]1(OC(C)=O)CO[C@@H]1C[C@@H]2O` [Taxol], the “mitotic index as a function of drug concentration (dose response path)” value was “S-shaped”. Besides, where the note is “FIG. 2B, concentration not displayed, number of cells that survived treatment as axis”, the “mitotic index versus number of cells (response path comparison)” value is listed as “act similarly to the tested concentrations of Vinblastine Sulfate”.
As for `CC[C@]1(O)C[C@@H]2CN(CCc3c([nH]c4ccccc34)[C@@](C(=O)OC)(c3cc4c(cc3OC)N(C)[C@H]3[C@@](O)(C(=O)OC)[C@H](OC(C)=O)[C@]5(CC)C=CCN6CC[C@]43[C@@H]65)C2)C1` [Vinblastine Sulfate], the “mitotic index as a function of drug concentration (dose response path)” value was “relatively high numerical value of mitotic index at various concentrations”.
The same measure, in the same setting: the value for `CC[C@@H]1/C=C/C=C/C[C@H](C)[C@H](O)[C@](C)(O)C(=O)[C@H](C)[C@@H](O)[C@H](C)C(=O)[C@H](C)[C@@H](O)[C@H](C)/C=C/C(=O)O[C@H]2[C@@H](C)[C@@H](CC1)O[C@@]1(CC[C@@H](C)[C@@H](C[C@H](C)O)O1)[C@@H]2C` [Oligomycin A] was “very little impact on mitotic index until relatively high concentrations are used”; that for `C=C1[C@@H](C)[C@H]2[C@H](Cc3ccccc3)NC(=O)[C@]23OC(=O)/C=C/C(=O)CCC[C@@H](C)C/C=C/[C@H]3[C@@H]1O` [Cytochalasin A] was “S-shaped”.
